Values after ≈ are worked out from the molar mass of the structure shown.
Assays:
[1] = tested on: Staphylococcus aureus MRQR (methicillin and quinolone resistant); experiment: MIC by agar-dilution, Staphylococcus aureus MRQR; format: cell-based; details: 37° C., 24 hours
Method: (§1) The following results were obtained on a standard in-vitro test system. The activity is described in terms of the minimum inhibitory concentration (MIC) determined by the agar-dilution technique with an inoculum size of 10^4 CFU/spot. Typically, compounds are active in the range 0.01 to 256 μg/ml.
(§2) Staphylococci were tested on agar, using an inoculum of 10^4 CFU/spot and an incubation temperature of 37° C. for 24 hours—standard test conditions for the expression of methicillin resistance.

[2] = tested on: Staphylococcus aureus Oxford; experiment: MIC by agar-dilution, Staphylococcus aureus Oxford; format: cell-based; details: 37° C., 24 hours
Method: as §1, §2

[3] = tested on: Streptococcus pyogenes C203; experiment: MIC by agar-dilution, Streptococcus pyogenes C203; format: cell-based; details: agar with 5% defibrinated horse blood, 5% carbon dioxide, 48 hours
Method: (§3) The following results were obtained on a standard in-vitro test system. The activity is described in terms of the minimum inhibitory concentration (MIC) determined by the agar-dilution technique with an inoculum size of 10^4 CFU/spot. Typically, compounds are active in the range 0.01 to 256 μg/ml. Streptococci and enterococci were tested on agar supplemented with 5% defibrinated horse blood, an inoculum of 10^4 CFU/spot and an incubation temperature of 37° C. in an atmosphere of 5% carbon dioxide for 48 hours—blood is required for the growth of some of the test organisms. Fastidious Gram negative organisms were tested in Mueller-Hinton broth, supplemented with hemin and NAD, grown aerobically for 24 hours at 37° C., and with an innoculum of 5×10^4 CFU/well.

[4] = tested on: Enterococcus faecalis; experiment: MIC by agar-dilution, Enterococcus faecalis; format: cell-based; details: agar with 5% defibrinated horse blood, 5% carbon dioxide, 48 hours
Method: as §3

[5] = tested on: Coagulase Negative Staphylococci MS (methicillin sensitive); experiment: MIC by agar-dilution, Coagulase Negative Staphylococci MS; format: cell-based; details: 37° C., 24 hours
Method: as §1, §2

[6] = tested on: Haemophilus influenzae ARC446; experiment: MIC, Haemophilus influenzae ARC446 (Mueller-Hinton broth); format: cell-based; details: Mueller-Hinton broth with hemin and NAD, 24 hours, 37° C.
Method: as §3

[7] = tested on: Staphylococcus aureus Novb. Res (Novobiocin resistant); experiment: MIC by agar-dilution, Staphylococcus aureus Novb. Res; format: cell-based; details: 37° C., 24 hours
Method: as §1, §2

[8] = tested on: Coagulase Negative Staphylococci MR (methicillin resistant); experiment: MIC by agar-dilution, Coagulase Negative Staphylococci MR; format: cell-based; details: 37° C., 24 hours
Method: as §1, §2

[9] = tested on: Moraxella catarrhalis ARC445; experiment: MIC, Moraxella catarrhalis ARC445 (Mueller-Hinton broth); format: cell-based; details: Mueller-Hinton broth with hemin and NAD, 24 hours, 37° C.
Method: as §3

[10] = tested on: Bacillus subtilis; experiment: MIC by agar-dilution, Bacillus subtilis; format: cell-based
Method: as §1

| MIC [1] | MIC [2] | MIC [3] | MIC [4] | MIC [5] | MIC [6] | MIC [7] | MIC [8] | MIC [9] | MIC [10] | melting point | Compound |
| --- | --- | --- | --- | --- | --- | --- | --- | --- | --- | --- | --- |
| 0.25 µg/mL (≈ 0.609 µM) | 0.125 µg/mL (≈ 0.305 µM) | 0.25 µg/mL (≈ 0.609 µM) | 0.25 µg/mL (≈ 0.609 µM) | 0.06 µg/mL (≈ 0.146 µM) | 2 µg/mL (≈ 4.87 µM) | 0.25 µg/mL (≈ 0.609 µM) | 0.13 µg/mL (≈ 0.317 µM) | 2 µg/mL (≈ 4.87 µM) | 0.25 µg/mL (≈ 0.609 µM) | – | O=C1O[C@@H](Cn2ccnn2)CN1c1cc(F)c(C2=CCS(=O)(=O)CC2)c(F)c1 [Example 44a, (5R)-3-(3,5-Difluoro-4-(3,6-dihydro-1,1-dioxo-2H-thiopyran-4-yl)phenyl)-5-(1,2,3-triazol-1-ylmethyl)oxazolidin-2-one] |
| – | – | – | – | – | – | – | – | – | – | 72 to 73 °C | CSc1ccc(N2C[C@H](Cn3cccn3)OC2=O)cc1 [Example 43, (5R)-3-(4-Methylthiophenyl)-5-(pyrazol-1-ylmethyl)oxazolidin-2-one] |
| – | – | – | – | – | – | – | – | – | – | 140 to 142 °C | CC(C)(C)c1ccc(N2C[C@H](Cn3ccnn3)OC2=O)cc1 [Example 41, (5R)-3-(4-t-Butylphenyl)-5-(1,2,3-triazol-1-ylmethyl)oxazolidin-2-one] |
